Experiments:
Assay type in all cases: cell-based
KCNQ2/3 channels = KCNQ2/3 channels (Homo sapiens, UniProt O43525+O43526); experiment: Two-electrode voltage-clamp of KCNQ2/3 channels expressed in Xenopus laevis oocytes
Source text: (§1) cRNA transcripts encoding human KCNA1, KCNQ1, KCNQ2, KCNQ3, KCNQ4, or KCNQ5 were generated by in vitro transcription using the T7 polymerase message machine kit (Thermo Fisher Scientific), after vector linearization, from cDNA sub-cloned into plasmids incorporating X. laevis β-globin 5′ and 3′ UTRs flanking the coding region to enhance translation and cRNA stability. cRNA was quantified by spectrophotometry. Mutant cDNAs were generated by site-directed mutagenesis using a QuikChange kit according to manufacturer’s protocol (Stratagene, San Diego, CA) and corresponding cRNAs prepared as above. Defolliculated stage V and VI X. laevis oocytes (Ecocyte Bioscience, Austin, TX) were injected with Kv channel α subunit cRNAs (10 ng total per oocyte). Oocytes were incubated at 16 °C in Barth’s saline solution (Ecocyte) containing penicillin and streptomycin, with daily washing, for 3–5 days prior to two-electrode voltage-clamp (TEVC) recording.
(§2) Oocytes were placed in a small-volume oocyte bath (Warner) and viewed with a dissection microscope. Chemicals were sourced from Sigma. Bath solution was (in mM): 96 NaCl, 4 KCl, 1 MgCl2, 1 CaCl2, 10 HEPES (pH 7.6). […] MTX (DMSO), sorbic acid (ethanol), and glutaconic acid (molecular grade H2O) were stored at −20 °C as 1 M stocks. Oleamide was stored as a 1 mM stock in ethanol at 4 °C. Palmitic acid was conjugated with bovine serum albumin as a 1 mM stock and stored at −20 °C. All compounds were diluted to working concentrations each experimental day. All compounds were introduced to the recording bath via gravity perfusion at a constant flow of 1 ml/min for 3 min prior to recording. Pipettes were of 1–2 MΩ resistance when filled with 3 M KCl. Currents were recorded in response to pulses between −80 and +40 mV at 20 mV intervals, or a single pulse to +40 mV, from a holding potential of −80 mV, to yield current–voltage relationships, current magnitude, and for quantifying activation rate. TEVC data analysis was performed with Clampfit10.2 (Molecular Devices) and Graphpad Prism software (GraphPad, San Diego, CA, USA); values are stated as mean ± SEM. Normalized tail currents were plotted versus prepulse voltage and fitted with a single Boltzmann function:1 g=A1-A2/1+expV12-Vy+A2, where g is the normalized tail conductance, A1 is the initial value at −∞, A2 is the final value at +∞, V1/2 is the half-maximal voltage of activation, and Vs the slope factor. Activation and deactivation kinetics were fitted with single-exponential functions.

W236L-Q2/Q3 channels = W236L-Q2/Q3 channels (Homo sapiens, UniProt O43525+O43526, W236L); experiment: Two-electrode voltage-clamp of W236L-Q2/Q3 mutant channels in Xenopus oocytes; details: for Non-normalized tail current V0.5 / Normalized tail current V0.5 / Slope: W236L-Q2/Q3
Sequence of W236L-Q2/Q3 channels (O43525 whole entry): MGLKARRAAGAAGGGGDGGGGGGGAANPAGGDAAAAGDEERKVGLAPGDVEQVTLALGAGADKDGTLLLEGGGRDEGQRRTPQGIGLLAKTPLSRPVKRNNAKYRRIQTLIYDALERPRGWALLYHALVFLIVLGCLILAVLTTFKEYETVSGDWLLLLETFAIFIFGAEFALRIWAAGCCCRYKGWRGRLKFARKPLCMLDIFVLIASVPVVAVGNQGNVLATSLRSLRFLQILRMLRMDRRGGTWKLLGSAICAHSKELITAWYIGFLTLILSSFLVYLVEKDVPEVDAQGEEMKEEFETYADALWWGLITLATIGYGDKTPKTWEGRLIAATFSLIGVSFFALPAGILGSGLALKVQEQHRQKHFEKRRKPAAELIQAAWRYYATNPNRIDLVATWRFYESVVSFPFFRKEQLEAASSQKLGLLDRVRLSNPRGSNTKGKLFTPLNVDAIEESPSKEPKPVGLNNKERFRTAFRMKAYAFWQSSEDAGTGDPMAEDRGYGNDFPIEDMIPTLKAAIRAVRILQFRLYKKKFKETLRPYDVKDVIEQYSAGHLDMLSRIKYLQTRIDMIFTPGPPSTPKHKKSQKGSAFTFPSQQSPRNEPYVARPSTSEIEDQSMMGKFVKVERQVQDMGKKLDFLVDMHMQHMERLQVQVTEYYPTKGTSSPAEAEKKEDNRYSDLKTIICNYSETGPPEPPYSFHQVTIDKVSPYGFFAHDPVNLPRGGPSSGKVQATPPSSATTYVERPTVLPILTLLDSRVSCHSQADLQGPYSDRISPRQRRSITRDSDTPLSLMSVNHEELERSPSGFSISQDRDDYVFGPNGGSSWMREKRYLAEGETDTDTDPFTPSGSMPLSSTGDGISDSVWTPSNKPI
Sequence of W236L-Q2/Q3 channels (O43526 whole entry W236L): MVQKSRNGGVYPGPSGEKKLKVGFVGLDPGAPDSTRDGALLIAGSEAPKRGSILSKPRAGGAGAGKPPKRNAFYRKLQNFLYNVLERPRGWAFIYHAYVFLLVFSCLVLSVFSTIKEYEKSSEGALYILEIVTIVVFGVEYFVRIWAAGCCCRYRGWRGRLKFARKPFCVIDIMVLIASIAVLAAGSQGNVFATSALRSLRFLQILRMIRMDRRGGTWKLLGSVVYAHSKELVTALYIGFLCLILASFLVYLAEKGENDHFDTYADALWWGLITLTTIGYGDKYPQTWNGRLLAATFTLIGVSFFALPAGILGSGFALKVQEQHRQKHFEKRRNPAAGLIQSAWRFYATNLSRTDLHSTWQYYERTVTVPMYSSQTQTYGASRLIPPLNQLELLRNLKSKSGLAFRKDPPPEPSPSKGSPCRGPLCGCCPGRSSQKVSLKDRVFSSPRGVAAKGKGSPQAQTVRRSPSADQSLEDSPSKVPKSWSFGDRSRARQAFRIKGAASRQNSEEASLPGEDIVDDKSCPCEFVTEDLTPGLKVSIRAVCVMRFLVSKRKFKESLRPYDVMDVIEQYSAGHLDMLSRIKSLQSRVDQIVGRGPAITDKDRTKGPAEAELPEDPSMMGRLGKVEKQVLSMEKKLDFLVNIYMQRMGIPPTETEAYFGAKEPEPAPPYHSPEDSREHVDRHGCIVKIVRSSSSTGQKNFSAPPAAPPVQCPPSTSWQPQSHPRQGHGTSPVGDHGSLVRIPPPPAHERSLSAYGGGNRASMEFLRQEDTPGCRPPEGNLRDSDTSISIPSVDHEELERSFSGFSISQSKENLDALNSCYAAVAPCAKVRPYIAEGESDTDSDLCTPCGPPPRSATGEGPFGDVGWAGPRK
Source text: as §1, §2

[1] = molecular target: KCNQ2-W236L/KCNQ3-W265L channels (Homo sapiens, UniProt O43525+O43526, W236L/W265L); experiment: Two-electrode voltage-clamp of W236L-Q2/W265L-Q3 mutant channels in Xenopus oocytes; details: for Non-normalized tail current V0.5 / Normalized tail current V0.5 / Slope: W236L-Q2/W265L-Q3
Source text: as §1, §2

[2] = KCNQ2/3, 30 µM, Supplementary Table 10
[3] = KCNQ2/3, 30 µM, Supplementary Table 11
[4] = KCNQ2/3, 30 µM, dose series (Supplementary Table 5)

`CC(=O)c1c(O)c(C)c(O)c(Cc2c(O)c3c(c(C(=O)/C=C/c4ccccc4)c2O)OC(C)(C)C=C3)c1O` [MTX, mallotoxin] was tested, and the “resting membrane potential (EM) of unclamped oocytes expressing KCNQ2/3” value (KCNQ2/3 channels) was “dose-dependently hyperpolarizes”, the “effects on KCNQ2/3” value (KCNQ2/3 channels; 1 µM alone) was “negligible effects” and the “effect on voltage dependence of KCNQ2/3 activation (initial screen)” value (KCNQ2/3 channels; 30 µM, tail currents at −30 mV) was “negative-shifted”. The “KCNQ2/3 current increase at −60 mV” value (KCNQ2/3 channels; 100 µM) was “seven-fold”, the “effect on KCNQ2/3 at +40 mV” value (KCNQ2/3 channels; +40 mV) was “little effect” and the EC50 (KCNQ2/3 channels; EC50, KCNQ2/3, current at −60 mV, calculated from dose responses) was 11.5 ± 0.2 µM. For the same compound, the “Non-normalized tail current V0.5” value (KCNQ2/3 channels; KCNQ2/3, 0.1 µM) was -47.3 ± 2.4 mV, the “Normalized tail current V0.5” value (KCNQ2/3 channels; KCNQ2/3, 0.1 µM) was -47.8 ± 0.5 mV and the Slope (KCNQ2/3 channels; KCNQ2/3, 0.1 µM) was 7.5 ± 0.4 mV. For the same compound, the “τ act, -40 mV” value (KCNQ2/3 channels; KCNQ2/3, 0.1 µM) was 684 ± 55 ms, the “τ deact, -80 mV” value (KCNQ2/3 channels; KCNQ2/3, 0.1 µM) was 236 ± 12 ms and the “Non-normalized tail current V0.5” value (KCNQ2/3 channels; KCNQ2/3, 1 µM) was -44.4 ± 4.9 mV. For the same compound, the “Normalized tail current V0.5” value (KCNQ2/3 channels; KCNQ2/3, 1 µM) was -47.0 ± 0.9 mV, the Slope (KCNQ2/3 channels; KCNQ2/3, 1 µM) was 7.4 ± 0.6 mV and the “τ act, -40 mV” value (KCNQ2/3 channels; KCNQ2/3, 1 µM) was 611 ± 46 ms. The “τ deact, -80 mV” value (KCNQ2/3 channels; KCNQ2/3, 1 µM) was 227 ± 20 ms, the “Non-normalized tail current V0.5” value (KCNQ2/3 channels; KCNQ2/3, 3 µM) was -47.3 ± 5.0 mV and the “Normalized tail current V0.5” value (KCNQ2/3 channels; KCNQ2/3, 3 µM) was -50.7 ± 1.0 mV. The Slope (KCNQ2/3 channels; KCNQ2/3, 3 µM) was 7.9 ± 0.8 mV, the “τ act, -40 mV” value (KCNQ2/3 channels; KCNQ2/3, 3 µM) was 530 ± 37 ms and the “τ deact, -80 mV” value (KCNQ2/3 channels; KCNQ2/3, 3 µM) was 259 ± 12 ms. For the same compound, the “Non-normalized tail current V0.5” value (KCNQ2/3 channels; KCNQ2/3, 10 µM) was -51.9 ± 4.8 mV, the “Normalized tail current V0.5” value (KCNQ2/3 channels; KCNQ2/3, 10 µM) was -56.2 ± 1.3 mV and the Slope (KCNQ2/3 channels; KCNQ2/3, 10 µM) was 6.8 ± 1.3 mV. The “τ act, -40 mV” value (KCNQ2/3 channels; KCNQ2/3, 10 µM) was 462 ± 34 ms, the “τ deact, -80 mV” value (KCNQ2/3 channels; KCNQ2/3, 10 µM) was 261 ± 7 ms and the “Non-normalized tail current V0.5” value (KCNQ2/3 channels; KCNQ2/3, 30 µM) was -54.9 ± 4.9 mV. The “Normalized tail current V0.5” value (KCNQ2/3 channels; KCNQ2/3, 30 µM) was -60.0 ± 1.8 mV, the Slope (KCNQ2/3 channels; KCNQ2/3, 30 µM) was 8.0 ± 1.8 mV and the “τ act, -20 mV” value (KCNQ2/3 channels; [2]) was 205 ± 6 ms. For the same compound, the “τ act, -40 mV” value (KCNQ2/3 channels; [2]) was 397 ± 26 ms, the “τ act, -60 mV” value (KCNQ2/3 channels; [2]) was 835 ± 51 ms and the “τ deact, -80 mV” value (KCNQ2/3 channels; [3]) was 143 ± 39 ms. The “τ deact, -90 mV” value (KCNQ2/3 channels; [3]) was 105 ± 4.2 ms, the “τ deact, -100 mV” value (KCNQ2/3 channels; [3]) was 77 ± 6.2 ms and the “τ deact, -110 mV” value (KCNQ2/3 channels; [3]) was 53 ± 3.5 ms. For the same compound, the “τ deact, -120 mV” value (KCNQ2/3 channels; [3]) was 36 ± 1.2 ms, the “τ act, -40 mV” value (KCNQ2/3 channels; [4]) was 403 ± 33 ms and the “τ deact, -80 mV” value (KCNQ2/3 channels; [4]) was 259 ± 18 ms. The “Non-normalized tail current V0.5” value (KCNQ2/3 channels; KCNQ2/3, 100 µM) was -56.6 ± 3.8 mV, the “Normalized tail current V0.5” value (KCNQ2/3 channels; KCNQ2/3, 100 µM) was -57.1 ± 0.6 mV and the Slope (KCNQ2/3 channels; KCNQ2/3, 100 µM) was 7.2 ± 0.5 mV. For the same compound, the “τ act, -40 mV” value (KCNQ2/3 channels; KCNQ2/3, 100 µM) was 403 ± 34 ms, the “τ deact, -80 mV” value (KCNQ2/3 channels; KCNQ2/3, 100 µM) was 415 ± 87 ms and the “shift in midpoint voltage dependence (V0.5) of activation” value (KCNQ2/3 channels; KCNQ2/3, MTX 30 µM) was −17 mV. For the same compound, the EC50 (KCNQ2/3 channels; V0.5 EC50, KCNQ2/3, calculated from shift in V0.5) was 4 ± 0.2 µM, the “KCNQ2/3 current increase at −60 mV” value (KCNQ2/3 channels; either component alone (MTX 30 µM; IVA 500 µM)) was “~ fivefold” and the “time to plateau of KCNQ2/3 activation after wash-in” value (KCNQ2/3 channels; −60 mV current) was 5 min. For the same compound, the EC50 (W236L-Q2/Q3 channels; EC50, W236L-Q2/Q3, calculated from dose responses) was 27 ± 0.6 µM, the EC50 (W236L-Q2/Q3 channels; V0.5 EC50, W236L-Q2/Q3, calculated from shift in V0.5) was 37.3 ± 0.2 µM and the “Non-normalized tail current V0.5” value (W236L-Q2/Q3 channels; 1 µM) was -55.7 ± 1.9 mV. The “Normalized tail current V0.5” value (W236L-Q2/Q3 channels; 1 µM) was -57.1 ± 0.9 mV, the Slope (W236L-Q2/Q3 channels; 1 µM) was 6.0 ± 0.7 mV and the “Non-normalized tail current V0.5” value (W236L-Q2/Q3 channels; 3 µM) was -55.4 ± 2.1 mV. The “Normalized tail current V0.5” value (W236L-Q2/Q3 channels; 3 µM) was -57.8 ± 1.3 mV, the Slope (W236L-Q2/Q3 channels; 3 µM) was 3.9 ± 2.2 mV and the “Non-normalized tail current V0.5” value (W236L-Q2/Q3 channels; 10 µM) was -57.3 ± 2.7 mV. For the same compound, the “Normalized tail current V0.5” value (W236L-Q2/Q3 channels; 10 µM) was -58.1 ± 0.9 mV, the Slope (W236L-Q2/Q3 channels; 10 µM) was 6.2 ± 0.7 mV and the “Non-normalized tail current V0.5” value (W236L-Q2/Q3 channels; 30 µM) was -61.9 ± 3.9 mV. For the same compound, the “Normalized tail current V0.5” value (W236L-Q2/Q3 channels; 30 µM) was -62.4 ± 1.3 mV, the Slope (W236L-Q2/Q3 channels; 30 µM) was 6.6 ± 0.9 mV and the “Non-normalized tail current V0.5” value (W236L-Q2/Q3 channels; 100 µM) was -67.9 ± 7.7 mV. For the same compound, the “Normalized tail current V0.5” value (W236L-Q2/Q3 channels; 100 µM) was -71.4 ± 4.5 mV, the Slope (W236L-Q2/Q3 channels; 100 µM) was 6.8 ± 1.2 mV and the EC50 [1] was 14.9 ± 0.1 µM. The “Non-normalized tail current V0.5” value ([1]; 1 µM) was -62.5 ± 3.4 mV, the “Normalized tail current V0.5” value ([1]; 1 µM) was -62.8 ± 0.4 mV and the Slope ([1]; 1 µM) was 5.9 ± 0.5 mV. For the same compound, the “Non-normalized tail current V0.5” value ([1]; 3 µM) was -63.6 ± 3.7 mV, the “Normalized tail current V0.5” value ([1]; 3 µM) was -64.1 ± 0.9 mV and the Slope ([1]; 3 µM) was 6.3 ± 0.9 mV. For the same compound, the “Non-normalized tail current V0.5” value ([1]; 10 µM) was -66.3 ± 3.9 mV, the “Normalized tail current V0.5” value ([1]; 10 µM) was -67.3 ± 0.9 mV and the Slope ([1]; 10 µM) was 6.4 ± 0.6 mV. The “Non-normalized tail current V0.5” value ([1]; 30 µM) was -70.6 ± 3.7 mV, the “Normalized tail current V0.5” value ([1]; 30 µM) was -71.9 ± 0.9 mV and the Slope ([1]; 30 µM) was 6.3 ± 0.5 mV. For the same compound, the “Non-normalized tail current V0.5” value ([1]; 100 µM) was -74.4 ± 3.9 mV, the “Normalized tail current V0.5” value ([1]; 100 µM) was -77.3 ± 1.4 mV and the Slope ([1]; 100 µM) was 5.9 ± 1.8 mV.

Reference: paper PMC6155021, “Ancient and modern anticonvulsants act synergistically in a KCNQ potassium channel binding pocket” (Nature Communications, 2018)
